In test [1] the target is T1, His10-PGRMC1 (Homo sapiens, UniProt O00264).
T1 construct: a product containing the full length coding region of PGMRC1 flanked by Nde1 and BamHI restriction sites; made in house; host or cells: E. coli BL21 (DE3) / BL21 codon plus (RIPL); purified bacterial membranes
Description: Coupled time-course proteolysis experiment (protease-sensitive vs protease-resistant specific binding). To be noted: trypsin after ligand incubation, FIG. 10. The text has this:
(§1) Since data from the competition assays indicate that progesterone and cholesterol bind to the same site within His10-PGRMC1 (His10 disclosed as SEQ ID NO: 14), the reason for the observation of more cholesterol binding in our assays was examined. There appear to be two plausible explanations: one possibility is that there are more cholesterol-specific binding sites on His10-PGRMC1 (His10 disclosed as SEQ ID NO: 14) that comprise the increase in observed binding; the other is that His10-PGRMC1 (His10 disclosed as SEQ ID NO: 14) is catalyzing the incorporation of cholesterol into the membrane. To distinguish between these possibilities, a coupled time-course proteolysis experiment was performed. In these studies, [^3H] progesterone and [^3H] cholesterol were incubated with membranes ±His10-PGRMC1 (His10 disclosed as SEQ ID NO: 14) for increasing time periods. At the end of the incubation period, the membranes were isolated, washed, and resuspended in a trypsin solution to remove all His10-PGRMC1 (His10 disclosed as SEQ ID NO: 14) protein. In this manner any ligand specifically bound to His10-PGRMC1 (His10 disclosed as SEQ ID NO: 14) would be protease-sensitive and be removed from the membrane fraction. Any ligand incorporated into the membrane or other protected site will be protease-resistant and remain in the membrane fraction. After proteolysis the reactions were separated by centrifugation into protease-resistant (membrane) and protease-sensitive (supernatant) fractions and ligand amount determined. […] Total specific binding of progesterone (FIG. 10A, diamonds) increasing over time and occurring at levels consistent with previous studies was observed. […] It is important to note that this ligand incorporation reaction is specific to bound cholesterol as it was observed that all bound progesterone was protein associated. Collectively our findings describe an important and previously uncharacterized function for PGRMC1 and sterol binding proteins in general, that of catalyzing the incorporation of cholesterol into membranes.

Test [2] concerns His10-PGRMC1. The test is described as above. On the set-up: species or system human. To be noted: trypsin after ligand incubation, FIG. 10.
Text: as §1

Test [3] in a line: PGRMC1 binding assay control: non-specific [^3H] ligand association with membranes from untransformed bacteria (−PGRMC1). Further details: species or system E. coli. To be noted: for Q1 / Q2: two binding site model; for Q1: number of non-specific sites; for Q2: number of specific sites. As to the method: IPTG-induced cells were harvested by centrifugation (5,000 rpm; 5 min) and washed with ice-cold H2O. The pellet was resuspended in 5 mL buffer A (50 mM Tris-HCl pH 7.5, 150 mM NaCl, 0.1% NP40, and 10% glycerol) with 5-10 mg lysozyme, and incubated on ice for 30 min. The cells were then disrupted by three bursts of sonication (45 sec) at high intensity with a 45 sec cooling period between bursts. Soluble material was removed by centrifugation (15,000 rpm, 10 min) and the pellet resuspended in 5 mL buffer A. His10-PGRMC1 (His10 disclosed as SEQ ID NO: 14) was confirmed to be present in purified membranes by SDS-PAGE followed by Coomassie stain and western blot using anti-tetra-His (SEQ ID NO: 15) antibody (Qiagen). Total protein in the His10-PGRMC1 (His10 disclosed as SEQ ID NO: 14) transformed and untransformed purified membranes was determined by the Bradford method and membranes were normalized to 10 μg/μL total protein (diluted with buffer A). Purified membranes were then aliquoted and stored frozen until use.
The standard 10 μL binding reaction contained 10 μp purified membranes (total protein) and 10 μM [^3H] progesterone or [^3H] cholesterol (3,000-5,000 cpm) in buffer A: 20% ethanol. Stock solutions (100 μM) of [^3H] cholesterol and [^3H] progesterone containing ˜4×10^4 cpm/μL, were prepared in 95% ethanol. Reactions were prepared in clear 2.0 mL microcentrifuge tubes on ice. To start the reaction, the microfuge tube was briefly mixed (vortex) and placed at 37° C. Following a 10 to 30 min incubation, the tubes were centrifuged in a microfuge (˜13,000 rpm) for 2 min. The supernatant was carefully removed and the pellet was washed with an additional 10 μL water. After a second round of centrifugation (2 min; 13,000 rpm), the resulting supernatant was combined with the first and the pellet was resuspended in 20 μL H2O, Scintillation fluid (700 μL Wallac Optiflour) was added to each fraction and the fractions were mixed extensively. The fractions were then counted in a multi-well scintillation counter (Wallac Microbeta Triluxmax, Waltham, Mass.) for 30 seconds each. Binding are reported as μ/moles of ligand bound per mg of membrane protein. His10-PGRMC1 (His10 disclosed as SEQ ID NO: 14)-specific binding is reported as the difference in binding between transformed and untransformed bacteria. Experimental deviations from the standard assay conditions are noted in individual figure legends.
In order to better understand PGRMC1's biological function and to study ligand binding, an in vitro binding assay was developed. E. coli BL21 codon plus (RIPL) cells were transformed with a vector encoding PGRMC1 that was epitope tagged with 10 histidine (SEQ ID NO: 14) residues at the NH2-terminus. Untransformed BL21 cells were used as the control. A purification procedure was performed to remove soluble proteins and cell components from the transformed (+PGRMC1) and untransformed (−PGRMC1) bacterial membranes. The resulting purified membranes were confirmed for the presence and absence of His10-PGRMC1 (His10 disclosed as SEQ ID NO: 14) respectively by Coomassie stain and western blot using anti-His antibody. The membranes with [^3H] progesterone or [^3H] cholesterol were then incubated. The membranes were spun out, washed, and counted in a scintillation counter. His10-PGRMC1 (His10 disclosed as SEQ ID NO: 14) specific binding was then determined by subtracting total membrane-associated ligand (nmols/mg protein) in membranes prepared from untransformed bacteria (−PGRMC1) with membranes purified from bacteria expressing His10-PGRMC1 (His10 disclosed as SEQ ID NO: 14) (+PGRMC1).
To further explore the nature of ligand binding to His10-PGRMC1 (His10 disclosed as SEQ ID NO: 14), several in silico modeling experiments fitting the saturation data to different models of ligand binding were performed. The best statistical fit of the data was to a two binding site model. […]

[4] abbreviates: first category of sites, present in both +PGRMC1 and −PGRMC1 membranes, read-out: Kd of non-specific binding.
Where [5] appears, read: two binding site model fit of saturation data, −PGRMC1 membranes, non-specific site, read-out: Kd1.

Where two headings read alike, the source gives them in different places.

T1 sequence (O00264 whole entry): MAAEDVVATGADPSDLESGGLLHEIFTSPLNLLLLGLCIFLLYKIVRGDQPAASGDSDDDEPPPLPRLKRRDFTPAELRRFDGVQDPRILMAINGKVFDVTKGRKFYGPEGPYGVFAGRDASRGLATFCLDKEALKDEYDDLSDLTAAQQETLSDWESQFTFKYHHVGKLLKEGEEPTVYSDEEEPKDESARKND

Take `CC(C)CCC[C@@H](C)[C@H]1CC[C@H]2[C@@H]3CC=C4C[C@@H](O)CC[C@]4(C)[C@H]3CC[C@]12C` [Cholesterol, cholesterol]: the “protease-sensitive (protein-associated) specific binding” value in test [1] is recorded as “decreased over time”. Besides, the “protease-resistant (membrane-associated) specific binding” value in test [2] is recorded as “increasingly protease-resistant”. In test [3] (setting [4]), the Kd is approximately 1 mM. In test [3] (setting [5]), the Kd is 0.9 mM. Besides, in test [3] (−PGRMC1 membranes), the Q1 is 8.4 × 10^9 Sites and the Q2 was determined as 0 Sites. Further, in test [3] (−PGRMC1 membranes, Protease −), the “Membrane-Associated [^3H] Ligand” value is on record as 3.7 ± 0.3 nmoles/mg protein.

As for `CC(=O)[C@H]1CC[C@H]2[C@@H]3CCC4=CC(=O)CC[C@]4(C)[C@H]3CC[C@]12C` [Progesterone, progesterone], the “protease-sensitive (protein-associated) specific binding” value in test [1] was “essentially all”. In test [2], the “protease-resistant (membrane-associated) specific binding” value is recorded as “virtually no”. Further, the Kd in test [3] (setting [4]) is approximately 1 mM; in test [3] (setting [5]), 1.7 mM. The Q1 in test [3] (−PGRMC1 membranes) is on record as 8.4 × 10^9 Sites. The compound also had a Q2 in test [3] (−PGRMC1 membranes) of 0 Sites. The “Membrane-Associated [^3H] Ligand” value in test [3] (−PGRMC1 membranes, Protease + (trypsin before ligand binding)) is recorded as 1.6 ± 0.2 nmoles/mg protein; in test [3] (−PGRMC1 membranes, Protease −), 2.4 ± 0.1 nmoles/mg protein.

These data come from patent US8187821B2, “Compositions and methods for the modulation of PGRMC1” (University of Utah Research Foundation, priority 2008, dated 2012).
